The text below walks through data of patent US9238656B2, “Imidazo[4,5-b]pyridine derivatives as ALK and JAK modulators for the treatment of proliferative disorders” (priority 2012, dated 2016).

Assay [1] concerns the target baculovirus-expressed ALK (Homo sapiens, UniProt Q9UM73). Description: ALK kinase inhibition, TRF/ELISA. Type of assay: biochemical. The following applies: read-out: ALK Potency. The protocol:
Briefly, each 96-well plate was coated with 100 μL/well of 10 μg/mL substrate (GST-PLC-γ) in Tris-buffered saline (TBS). […] The reaction was initiated by adding enzyme (30 ng/mL ALK) and was allowed to proceed at 37° C. for 15 minutes. Detection of the phosphorylated product was performed by adding 100 μL/well of Eu-N1 labeled PT66 antibody (Perkin Elmer #AD0041). […] Data analysis was performed using ActivityBase (IDBS, Guilford, UK). IC50 values were calculated by plotting percent inhibition versus log10 of the concentration of compound and fitting to the nonlinear regression sigmoidal dose-response (variable slope) equation in XLFit (IDBS, Guilford, UK).
A general note: An ELISA detects its analyte on a solid surface through an enzyme-linked reagent.

Assay [2] addresses baculovirus-expressed JAK2 kinase (Homo sapiens, UniProt O60674). The experiment in a line: biochemical. The following applies: 0.2 μM ATP; read-out: JAK2 Potency. The procedure: Compounds were tested for their ability to inhibit the kinase activity of baculovirus-expressed JAK2 kinase using the time-resolved fluorescence (TRF) detection system. […] The plates were coated with 100 μL/well of 10 μg/mL Neutravidin (Pierce #31000, Rockford, Ill.) in TBS at 37° C. for 2 h, followed by 100 μL/well of 1 μg/mL 15-mer peptide substrate (biotinyl-amino-hexanoyl-[…]-amide, Infinity Biotech Research and Resource, Aston, Pa.) at 37° C. for 1 h. […] Enzyme (15 ng/mL JAK2) was added and the reaction was allowed to proceed at room temperature for 20 min. […] Inhibition data were analyzed using ActivityBase (IDBS, Guilford, UK). IC50 values were calculated by plotting percent inhibition versus log10 of the concentration of compound and fitting to the nonlinear regression sigmoidal dose-response (variable slope) equation in XLFit (IDBS, Guilford, UK).

Where a name gives a salt, the structure may show the parent alone.

Chain of baculovirus-expressed ALK (Q9UM73 19-1620): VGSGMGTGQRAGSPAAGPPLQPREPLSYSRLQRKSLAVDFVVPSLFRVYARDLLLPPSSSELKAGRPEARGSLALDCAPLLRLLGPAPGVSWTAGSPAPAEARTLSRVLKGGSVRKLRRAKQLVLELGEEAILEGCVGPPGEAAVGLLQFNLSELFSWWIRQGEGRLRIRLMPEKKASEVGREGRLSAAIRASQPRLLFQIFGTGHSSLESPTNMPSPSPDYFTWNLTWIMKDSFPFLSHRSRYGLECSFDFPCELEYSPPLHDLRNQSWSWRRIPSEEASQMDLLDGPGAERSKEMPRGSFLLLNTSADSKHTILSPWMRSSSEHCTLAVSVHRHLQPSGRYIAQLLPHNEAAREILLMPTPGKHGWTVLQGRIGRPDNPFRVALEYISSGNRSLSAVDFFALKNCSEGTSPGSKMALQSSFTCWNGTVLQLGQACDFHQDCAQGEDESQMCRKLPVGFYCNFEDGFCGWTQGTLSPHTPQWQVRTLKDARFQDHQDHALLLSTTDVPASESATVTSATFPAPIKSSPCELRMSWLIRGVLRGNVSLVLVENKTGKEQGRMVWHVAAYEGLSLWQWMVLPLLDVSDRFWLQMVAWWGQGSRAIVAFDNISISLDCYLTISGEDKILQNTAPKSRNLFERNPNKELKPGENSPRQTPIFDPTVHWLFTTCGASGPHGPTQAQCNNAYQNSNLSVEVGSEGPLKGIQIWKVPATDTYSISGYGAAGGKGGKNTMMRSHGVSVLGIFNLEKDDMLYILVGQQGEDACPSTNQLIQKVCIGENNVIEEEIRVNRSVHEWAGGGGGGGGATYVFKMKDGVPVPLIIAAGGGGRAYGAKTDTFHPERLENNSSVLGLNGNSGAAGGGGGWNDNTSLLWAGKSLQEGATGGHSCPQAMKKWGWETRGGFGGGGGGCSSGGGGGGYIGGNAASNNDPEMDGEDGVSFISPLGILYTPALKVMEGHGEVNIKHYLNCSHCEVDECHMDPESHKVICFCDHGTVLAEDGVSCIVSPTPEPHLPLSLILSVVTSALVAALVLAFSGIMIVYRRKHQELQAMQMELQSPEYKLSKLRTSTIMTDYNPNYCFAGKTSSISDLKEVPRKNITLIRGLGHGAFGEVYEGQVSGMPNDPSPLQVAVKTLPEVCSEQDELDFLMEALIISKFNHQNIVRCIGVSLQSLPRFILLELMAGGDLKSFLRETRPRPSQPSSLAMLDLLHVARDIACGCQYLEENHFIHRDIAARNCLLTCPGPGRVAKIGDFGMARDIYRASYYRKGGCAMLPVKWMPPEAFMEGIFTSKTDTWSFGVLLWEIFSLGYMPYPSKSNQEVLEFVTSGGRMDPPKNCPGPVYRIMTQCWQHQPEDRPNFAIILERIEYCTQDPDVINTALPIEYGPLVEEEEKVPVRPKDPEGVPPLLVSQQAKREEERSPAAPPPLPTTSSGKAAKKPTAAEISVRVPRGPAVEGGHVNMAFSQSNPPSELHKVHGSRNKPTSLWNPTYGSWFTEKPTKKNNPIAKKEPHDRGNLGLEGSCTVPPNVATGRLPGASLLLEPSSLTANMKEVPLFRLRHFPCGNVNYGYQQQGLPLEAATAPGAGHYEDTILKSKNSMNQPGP
Chain of baculovirus-expressed JAK2 kinase (O60674 whole entry): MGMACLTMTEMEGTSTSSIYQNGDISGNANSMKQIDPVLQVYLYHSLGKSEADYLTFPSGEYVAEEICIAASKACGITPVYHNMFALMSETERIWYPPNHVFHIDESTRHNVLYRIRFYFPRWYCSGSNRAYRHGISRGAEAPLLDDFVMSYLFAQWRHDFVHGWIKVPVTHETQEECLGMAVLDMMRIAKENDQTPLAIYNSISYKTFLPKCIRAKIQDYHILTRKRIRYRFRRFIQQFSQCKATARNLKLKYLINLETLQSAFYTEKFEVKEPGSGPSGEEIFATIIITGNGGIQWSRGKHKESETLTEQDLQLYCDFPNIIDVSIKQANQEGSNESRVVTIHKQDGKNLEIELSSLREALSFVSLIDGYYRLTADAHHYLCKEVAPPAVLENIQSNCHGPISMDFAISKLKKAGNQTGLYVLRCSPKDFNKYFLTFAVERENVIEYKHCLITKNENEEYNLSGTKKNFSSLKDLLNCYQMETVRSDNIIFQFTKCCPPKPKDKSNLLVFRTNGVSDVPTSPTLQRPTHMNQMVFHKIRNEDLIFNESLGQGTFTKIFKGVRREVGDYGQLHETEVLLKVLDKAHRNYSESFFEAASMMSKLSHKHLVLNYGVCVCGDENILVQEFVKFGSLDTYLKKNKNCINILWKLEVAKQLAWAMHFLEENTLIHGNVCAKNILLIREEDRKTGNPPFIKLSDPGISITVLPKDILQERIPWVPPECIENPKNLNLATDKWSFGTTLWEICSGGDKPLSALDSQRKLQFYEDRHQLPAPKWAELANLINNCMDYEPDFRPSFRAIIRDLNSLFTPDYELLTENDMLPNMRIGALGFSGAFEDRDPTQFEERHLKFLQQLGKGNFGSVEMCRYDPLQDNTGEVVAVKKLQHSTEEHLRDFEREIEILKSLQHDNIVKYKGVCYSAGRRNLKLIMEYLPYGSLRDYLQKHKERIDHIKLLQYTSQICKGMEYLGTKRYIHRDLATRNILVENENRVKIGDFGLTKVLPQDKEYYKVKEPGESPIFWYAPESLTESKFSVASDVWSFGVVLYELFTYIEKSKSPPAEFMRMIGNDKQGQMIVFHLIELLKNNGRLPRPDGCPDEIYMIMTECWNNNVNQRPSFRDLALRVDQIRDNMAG

Turning to `CN1CCC(Oc2cccc(-c3nc4c(N[C@H]5[C@@H](C(N)=O)[C@@H]6C=C[C@H]5C6)c(Cl)cnc4[nH]3)c2)CC1` [Compound CCXLVIII, (1S,2S,3R,4R)-3-(6-chloro-2-(3-(1-methylpiperidin-4-yloxy)phenyl)-3H-imidazo[4,5-b]pyridin-7-ylamino)bicyclo[2.2.1]hept-5-ene-2-carboxamide], the IC50 in assay [1] and in assay [2] was below 100 nM each time.

Take `NC(=O)[C@@H]1[C@H](Nc2c(Br)cnc3[nH]c(-c4sc(N5CCOCC5)nc4Cl)nc23)[C@H]2C=C[C@@H]1C2` [Compound CLXI, (1S,2S,3R,4R)-3-[6-Bromo-2-(4-chloro-2-morpholin-4-yl-thiazol-5-yl)-3H-imidazo[4,5-b]pyridin-7-ylamino]-bicyclo[2.2.1]hept-5-ene-2-carboxylic acid amide]: the IC50 in assay [1] and in assay [2] was below 100 nM each time.

For `COc1cc(N(C)C)ccc1-c1nc2c(N[C@H]3[C@@H](C(N)=O)[C@@H]4C=C[C@H]3C4)c(Cl)cnc2[nH]1` [Compound XVII, (1S,2S,3R,4R)-3-[6-Chloro-2-(4-dimethylamino-2-methoxy-phenyl)-3H-imidazo[4,5-b]pyridine-7-ylamino]-bicyclo[2.2.1]hept-5-ene-2-carboxylic acid amide], the IC50 in assay [1] and in assay [2] was below 100 nM each time.

As to `CC(C)(C)OC(=O)N1CCCC(c2nc3c(N[C@H]4[C@@H](C(N)=O)[C@@H]5C=C[C@H]4C5)c(Cl)cnc3[nH]2)C1` (stereo partly drawn) [Compound XI, 3-[7-((1R,2R,3S,4S)-3-Carbamoyl-bicyclo[2.2.1]hept-5-en-2-ylamino)-6-chloro-3H-imidazo[4,5-b]pyridine-2-yl]-piperidine-1-carboxylic acid tert-butyl ester], the IC50 in assay [1] and in assay [2] was above 10000 nM throughout.

For `N#Cc1ccc(-c2nc3c(N[C@H]4[C@@H](C(N)=O)[C@@H]5C=C[C@H]4C5)c(Cl)cnc3[nH]2)cc1` [Compound CXLV, (1S,2S,3R,4R)-3-[6-Chloro-2-(4-cyano-phenyl)-3H-imidazo[4,5-b]pyridin-7-ylamino]-bicyclo[2.2.1]hept-5-ene-2-carboxylic acid amide], the IC50 in assay [1] was 100 to 1000 nM; in assay [2], below 100 nM.

Consider `NC(=O)[C@@H]1[C@H](Nc2c(Cl)cnc3[nH]c(-c4ccc(CN5CCOCC5)cc4)nc23)[C@H]2C=C[C@@H]1C2` [Compound III, (1S,2S,3R,4R)-3-[6-Chloro-2-(4-morpholin-4-ylmethyl-phenyl)-3H-imidazo[4,5-b]pyridine-7-ylamino]-bicyclo[2.2.1]hept-5-ene-2-carboxylic acid amide-trifluoroacetate salt], for which the IC50 in assay [1] and in assay [2] was below 100 nM each time.

For the molecule `NC(=O)[C@@H]1[C@H](Nc2c(Cl)cnc3[nH]c(-c4cccnc4N4CCOCC4)nc23)[C@H]2C=C[C@@H]1C2` [Compound XXXIV, (1S,2S,3R,4R)-3-[6-Chloro-2-(2-morpholin-4-yl-pyridin-3-yl)-3H-imidazo[4,5-b]pyridine-7-ylamino]-bicyclo[2.2.1]hept-5-ene-2-carboxylic acid amide], the IC50 is 1000 to 10000 nM in assay [1] and above 10000 nM in assay [2].

In the case of `NC(=O)[C@@H]1[C@H](Nc2c(Cl)cnc3[nH]c(-c4ccc(OCCN5CCOCC5)cc4)nc23)[C@H]2C=C[C@@H]1C2` [Compound CCXXXIX, (1S,2S,3R,4R)-3-(6-chloro-2-(4-(2-morpholinoethoxy)phenyl)-3H-imidazo[4,5-b]pyridin-7-ylamino)bicyclo[2.2.1]hept-5-ene-2-carboxamide], the IC50 in assay [1] and in assay [2] was below 100 nM in each case.

Take `CN1CCN(c2ncc(-c3nc4c(N[C@H]5[C@@H](C(N)=O)[C@@H]6C=C[C@H]5C6)c(Cl)cnc4[nH]3)s2)CC1` [Compound CCXI, (1S,2S,3R,4R)-3-(6-chloro-2-(2-(4-methylpiperazin-1-yl)thiazol-5-yl)-3H-imidazo[4,5-b]pyridin-7-ylamino)bicyclo[2.2.1]hept-5-ene-2-carboxamide]: the IC50 in assay [1] and in assay [2] was below 100 nM each time.

Consider `NC(=O)[C@@H]1[C@H](Nc2c(Cl)cnc3[nH]c(-c4cccc(C(=O)N5CCNCC5)c4)nc23)[C@H]2C=C[C@@H]1C2` [Compound CCXIX, (1S,2S,3R,4R)-3-(6-chloro-2-(3-(piperazine-1-carbonyl)phenyl)-3H-imidazo[4,5-b]pyridin-7-ylamino)bicyclo[2.2.1]hept-5-ene-2-carboxamide], for which the IC50 in assay [1] and in assay [2] was below 100 nM throughout.

For the molecule `CC12CCC(Nc3c(Cl)cnc4[nH]c(-c5ccc(N6CCOCC6)cc5)nc34)(CC1O)C2(C)C` (stereo not shown) [Compound CCI, 4-(6-chloro-2-(4-morpholinophenyl)-3H-imidazo[4,5-b]pyridin-7-ylamino)-1,7,7-trimethylbicyclo[2.2.1]heptan-2-ol], the IC50 in assay [1] is above 10000 nM; in assay [2], below 100 nM.

For the molecule `NC(=O)[C@@H]1[C@H](Nc2c(Cl)cnc3[nH]c(-c4cn5c(n4)CCCC5)nc23)[C@H]2C=C[C@@H]1C2` [Compound CCXIII, (1S,2S,3R,4R)-3-(6-chloro-2-(5,6,7,8-tetrahydroimidazo[1,2-a]pyridin-2-yl)-3H-imidazo[4,5-b]pyridin-7-ylamino)bicyclo[2.2.1]hept-5-ene-2-carboxamide], the IC50 was 100 to 1000 nM in assay [1] and below 100 nM in assay [2].

For `CN(C)CCOc1cccc(-c2nc3c(N[C@H]4[C@@H](C(N)=O)[C@@H]5C=C[C@H]4C5)c(Cl)cnc3[nH]2)c1` [Compound CCXLVII, (1S,2S,3R,4R)-3-(6-chloro-2-(3-(2-(dimethylamino)ethoxy)phenyl)-3H-imidazo[4,5-b]234yridine-7-ylamino)pyridin[2.2.1]hept-5-ene-2-carboxamide], the IC50 in assay [1] and in assay [2] was below 100 nM each time.

Turning to `CC(O)CN1CCC(Oc2ccc(-c3nc4c(N[C@H]5[C@@H](C(N)=O)[C@@H]6C=C[C@H]5C6)c(Cl)cnc4[nH]3)cc2)CC1` (stereo partly drawn) [Compound CCLII, (1S,2S,3R,4R)-3-(6-chloro-2-(4-(1-(2-hydroxypropyl)piperidin-4-yloxy)phenyl)-3H-imidazo[4,5-b]pyridin-7-ylamino)bicyclo[2.2.1]hept-5-ene-2-carboxamide], the IC50 in assay [1] and in assay [2] was below 100 nM throughout.

Regarding `Cc1nn(C)c(C)c1-c1nc2c(N[C@H]3[C@@H](C(N)=O)[C@@H]4C=C[C@H]3C4)c(Cl)cnc2[nH]1` [Compound CLI, (1S,2S,3R,4R)-3-[6-Chloro-2-(1,3,5-trimethyl-1H-pyrazol-4-yl)-3H-imidazo[4,5-b]pyridin-7-ylamino]-bicyclo[2.2.1]hept-5-ene-2-carboxylic acid amide], the IC50 in assay [1] and in assay [2] was below 100 nM throughout.

In the case of `Cn1cc(-c2nc3c(N[C@@]45CCC(C)(C(O)C4)C5(C)C)c(Cl)cnc3[nH]2)cn1` (stereo partly drawn) [Compound CCII, (4S)-4-(6-chloro-2-(1-methyl-1H-pyrazol-4-yl)-3H-imidazo[4,5-b]pyridin-7-ylamino)-1,7,7-trimethylbicyclo[2.2.1]heptan-2-ol], the IC50 in assay [1] is above 10000 nM; in assay [2], below 100 nM.

For the molecule `N#Cc1cccc(-c2nc3c(N[C@H]4[C@@H](C(N)=O)[C@@H]5C=C[C@H]4C5)c(Cl)cnc3[nH]2)c1` [Compound CXLIV, (1S,2S,3R,4R)-3-[6-Chloro-2-(3-cyano-phenyl)-3H-imidazo[4,5-b]pyridin-7-ylamino]-bicyclo[2.2.1]hept-5-ene-2-carboxylic acid amide], the IC50 is 100 to 1000 nM in assay [1] and below 100 nM in assay [2].
